Test results taken from paper PMC9920808, “Impact of the Substitution Pattern at the Basic Center and Geometry of the Amine Fragment on 5-HT6 and D3R Affinity in the 1H-Pyrrolo[3,2-c]quinoline Series” (Molecules, 2023).
Counter-ions that a name gives are not always drawn. Like-named read-outs stand apart in the source and are kept apart here.

Experiments:
human 5-HT6R [1] = molecular target: T1, human 5-HT6R (Homo sapiens, UniProt P50406); test: [3H]-LSD radioligand binding assay at 5-HT6R in HEK293 cell membranes; settings: HEK293 cells with stable expression of human 5-HT6R, mean of at least three experiments (SEM ≤ 18%)
T1 construct: expressed in transfected cells
Experimental: (§1) The biological evaluation was initiated by assessing the affinity of the compounds for 5-HT6R in the [^3H]-LSD radioligand binding assay. Experiments were performed in a stable HEK293 cell line expressing the human 5-HT6R [10]. […] Experiments were performed in Chinese hamster ovary (CHO) cells with the stable expression of human D3R (Eurofins, Celle-L’Evescault, France).
HEK293 cells with stable expression of human 5-HT6 receptors (prepared with the use of Lipofectamine 2000) were maintained at 37 °C in a humidified atmosphere with 5% CO2 and grown in Dulbecco’s modified Eagle medium containing 10% dialyzed fetal bovine serum and 500 μg/mL G418 sulfate. For membrane preparation, cells were sub-cultured in 150 cm^2 flasks, grown to 90% confluence, washed twice with phosphate buffered saline (PBS), prewarmed to 37 °C, and pelleted by centrifugation (200× g) in PBS containing 0.1 mM EDTA and 1 mM dithiothreitol. Prior to membrane preparation, pellets were stored at −80 °C.
The cell pellets were thawed and homogenized in 10 volumes of assay buffer using an Ultra Turrax tissue homogenizer(IKA, Warsaw, Poland), centrifuged twice at 35,000× g for 15 min at 4 °C, and incubated for 15 min at 37 °C between centrifugation rounds. The composition of the assay buffers was 50 mM Tris HCl, 0.5 mM EDTA, and 4 mM MgCl2. The assays were incubated in a total volume of 200 μL in 96-well microtiter plates for 1 h at 37 °C. The process of equilibration was terminated by rapid filtration through Unifilter plates with a 96-well cell harvester, and radioactivity retained on the filters was quantified on a Microbeta plate reader (PerkinElmer, Waltham, MA, USA). For displacement studies, the assay samples contained as radioligands (PerkinElmer, USA) 2 nM [^3H]-LSD (83.6 Ci/mmol). Nonspecific binding was defined with 10 μM methiothepine. Each compound was tested in triplicate at 7 concentrations (10^−10 to 10^−4 M). The inhibition constants (Ki) were calculated from the Cheng−Prusoff equation [30]. […]

5-HT6R = settings: Figure 1; ref 25 (SB737050), ref 19 (I), ref 26 (PZ-1643), ref 27 (CPPQ); cited from earlier work
D2R = settings: Figure 1; ref 25 (SB737050), ref 19 (I), ref 26 (PZ-1643), ref 27 (CPPQ); cited from earlier work
D3R = molecular target: D3R; set-up: method as in earlier work; settings: Figure 1; ref 25 (SB737050), ref 19 (I), ref 26 (PZ-1643); cited from earlier work
human D3R [2] = molecular target: T2, human D3R (Homo sapiens, UniProt P35462); test: D3R screening binding with [3H]-methylspiperone in CHO cells (Eurofins); settings: percentage displacement at 10^-6 M; CHO cells with stable expression of human D3R; read-out: %inh Binding to D3R @1μM
Experimental: as §1

human 5-HT6R [3] = molecular target: T1, human 5-HT6R; set-up: method as in PMID 30896921; settings: HEK293 cells, data taken from ref 26; cited from earlier work
human D3R [4] = molecular target: T2, human D3R; set-up: method as in PMID 30896921; settings: data taken from ref 26, cited from earlier work
human 5-HT6R [5] = molecular target: T1, human 5-HT6R; test: 5-HT6R constitutive activity at Gs signaling in NG108-15 cells (CAMYEL BRET cAMP sensor); assay type: cell-based; settings: NG108-15 cells transiently expressing 5-HT6R; Figure 3
Experimental: The experiments were performed in 1321N1 cells expressing the human serotonin 5-HT6R. […] Neuroblastoma cells (NG108-15) were grown in DMEM (Dulbecco’s modified Eagle’s medium) supplemented with 10% heat-inactivated fetal bovine serum, 2% HAT (hypoxanthine/aminopterin/thymidine, Life technologies), glutamine, and antibiotics at 37 °C under 5% of CO2. cAMP measurement was performed in cells transiently transfected with a construct expressing the CAMYEL bioluminescence resonance energy transfer (BRET) sensor for cAMP [44] (3 μg DNA/million cells) alone or in combination with a plasmid encoding the human 5-HT6R (0.5 μg DNA/million cells). Transfection of the NG108-15 cells was conducted in suspension using Lipofectamine 2000, according to the manufacturer’s protocol. Plasmids and lipofectamine were diluted in Opti-MEM Reduced Serum Media (Gibco) and incubated at room temperature for 20 min before being added to the cells. […] Coelanterazine H (Molecular Probes) was added in each well at a final concentration of 5 μM and incubated at room temperature for 5 min before measuring BRET in a Mithras LB 940 plate reader (Berthold Technologies, Bad Wildbad, Germany). The decrease in CAMYEL BRET induced by the coexpression of the probe with the 5-HT6R as compared to the BRET measured in cells expressing the probe alone was used as an index of the 5-HT6R constitutive activity.

human serotonin 5-HT6R = molecular target: T3, human serotonin 5-HT6R (Homo sapiens, UniProt P50406); test: cAMP cellular assay, inhibition of 5-CT-induced cAMP production in 1321N1 cells; assay type: cell-based; settings: 1321N1 cells expressing human 5-HT6R; cAMP production induced by 5-CT (1000 nM); read-out: Kb, antagonist properties at 5-HT6R
T3 construct: host or cells: 1321N1 (frozen recombinant cells)
Experimental: The experiments were performed in 1321N1 cells expressing the human serotonin 5-HT6R.
The functional properties of compounds on 5-HT6R were evaluated using its ability to inhibit cAMP production induced by 5-CT (1000 nM), a 5-HT6R agonist. The compound was tested in triplicate at 8 concentrations (10^−11 to 10^−4 M). The level of adenylyl cyclase activity was measured using frozen recombinant 1321N1 cells expressing the human serotonin 5-HT6R (PerkinElmer). Total cAMP was measured using the LANCE cAMP detection kit (PerkinElmer), according to the manufacturer’s directions. For quantification of cAMP levels, cells (5 μL) were incubated with a mixture of compounds (5 μL) for 30 min at room temperature in 384-well white opaque microtiter plates. After incubation, the reaction was stopped, and cells were lysed by the addition of 10 μL of working solution (5 μL of Eu-cAMP and 5 μL of ULight-anti-cAMP). The assay plate was incubated for 1 h at room temperature. Time-resolved fluorescence resonance energy transfer (TR-FRET) was detected by an Infinite M1000 Pro (Tecan, Männedorf, Switzerland) using instrument settings from LANCE cAMP detection kit manual(PerkinElmer, Waltham, MA, USA).

T2 sequence (P35462 whole entry): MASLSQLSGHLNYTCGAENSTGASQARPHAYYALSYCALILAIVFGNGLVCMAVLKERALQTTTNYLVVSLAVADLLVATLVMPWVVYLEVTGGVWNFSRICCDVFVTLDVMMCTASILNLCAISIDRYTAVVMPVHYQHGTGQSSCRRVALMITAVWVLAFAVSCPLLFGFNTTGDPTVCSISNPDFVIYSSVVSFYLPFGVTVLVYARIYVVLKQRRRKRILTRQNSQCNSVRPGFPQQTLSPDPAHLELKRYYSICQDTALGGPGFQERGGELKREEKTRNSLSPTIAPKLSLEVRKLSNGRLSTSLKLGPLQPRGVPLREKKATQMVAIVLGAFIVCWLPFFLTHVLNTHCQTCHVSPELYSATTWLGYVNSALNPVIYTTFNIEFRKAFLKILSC
T1 sequence (P50406 whole entry): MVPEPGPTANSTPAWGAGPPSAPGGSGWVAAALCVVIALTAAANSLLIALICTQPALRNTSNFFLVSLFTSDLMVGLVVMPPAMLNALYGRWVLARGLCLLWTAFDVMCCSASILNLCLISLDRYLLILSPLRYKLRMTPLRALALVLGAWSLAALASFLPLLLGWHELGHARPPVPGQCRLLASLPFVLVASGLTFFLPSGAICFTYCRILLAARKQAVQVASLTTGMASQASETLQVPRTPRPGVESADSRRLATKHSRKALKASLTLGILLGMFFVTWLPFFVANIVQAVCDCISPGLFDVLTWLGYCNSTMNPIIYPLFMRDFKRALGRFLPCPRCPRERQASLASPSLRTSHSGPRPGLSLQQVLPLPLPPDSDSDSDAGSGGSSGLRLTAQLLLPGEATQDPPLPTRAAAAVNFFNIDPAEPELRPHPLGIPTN
T3 sequence (P50406 whole entry): as above

CCN1CCC[C@H]1CNc1nc2ccccc2c2c1ccn2S(=O)(=O)c1cccc(Cl)c1 [Compound 14, (S)-1-((3-chlorophenyl)sulfonyl)-N-((1-ethylpyrrolidin-2-yl)methyl)-1H-pyrrolo[3,2-c]quinolin-4-amine hydrochloride]
Ki (human 5-HT6R [1]): 72 nM

CN1Cc2c(ccc3c2ccn3S(=O)(=O)c2c(Cl)nc3sccn23)CC1CCO (centres unmarked) [I]
pKi 5-HT6R (5-HT6R): 8.7
pKi D2R (D2R): 7.4
pKi D3R (D3R): 9.0

O=S(=O)(c1cccc(Cl)c1)n1ccc2c(N[C@H]3CCN(CCC(F)(F)F)C3)nc3ccccc3c21 [Compound 12, (S)-1-((3-chlorophenyl)sulfonyl)-N-(1-(3,3,3-trifluoropropyl)pyrrolidin-3-yl)-1H-pyrrolo[3,2-c]quinolin-4-amine]
Ki (human 5-HT6R [1]): 556 nM

O=S(=O)(c1cccc(Cl)c1)n1ccc2c(N[C@H]3CCN(CCO)C3)nc3ccccc3c21 [Compound 10, (S)-2-(3-((1-((3-chlorophenyl)sulfonyl)-1H-pyrrolo[3,2-c]quinolin-4-yl)amino)pyrrolidin-1-yl)ethan-1-ol]
Ki (human 5-HT6R [1]): 84 nM

C[C@@H](O)CN1CC[C@H](Nc2nc3ccccc3c3c2ccn3S(=O)(=O)c2cccc(Cl)c2)C1 [Compound 9, (R)-1-((S)-3-((1-((3-chlorophenyl)sulfonyl)-1H-pyrrolo[3,2-c]quinolin-4-yl)amino)pyrrolidin-1-yl)propan-2-ol]
inhibition at 1 µM (human D3R [2]): 54%
Ki (human 5-HT6R [1]): 6 nM

C[C@H](O)CN1CC[C@H](Nc2nc3ccccc3c3c2ccn3S(=O)(=O)c2cccc(Cl)c2)C1 [Compound 8, (S)-1-((S)-3-((1-((3-chlorophenyl)sulfonyl)-1H-pyrrolo[3,2-c]quinolin-4-yl)amino)pyrrolidin-1-yl)propan-2-ol]
Ki (human 5-HT6R [1]): 11 nM

CCN1CC[C@@H](CNc2nc3ccccc3c3c2ccn3S(=O)(=O)c2cccc(Cl)c2)C1 [Compound 16, (S)-1-((3-chlorophenyl)sulfonyl)-N-((1-ethylpyrrolidin-3-yl)methyl)-1H-pyrrolo[3,2-c]quinolin-4-amine hydrochloride]
Ki (human 5-HT6R [1]): 64 nM

CCN1CC[C@H](CNc2nc3ccccc3c3c2ccn3S(=O)(=O)c2cccc(Cl)c2)C1 [Compound 15, (R)-1-((3-chlorophenyl)sulfonyl)-N-((1-ethylpyrrolidin-3-yl)methyl)-1H-pyrrolo[3,2-c]quinolin-4-amine hydrochloride]
Ki (human 5-HT6R [1]): 38 nM

CC(C)CN1CC[C@H](Nc2nc3ccccc3c3c2ccn3S(=O)(=O)c2cccc(Cl)c2)C1 [PZ-1643]
Ki (human 5-HT6R [3]): 27 nM
pKi 5-HT6R (5-HT6R): 7.6
pKi D2R (D2R): 6.5
%inh Binding to D3R @1μM (human D3R [4]; percentage displacement at 10^-6 M): 98%
Ki (human D3R [4]; printed in parentheses after %inh, read-out: D3R affinity value in parentheses (Ki)): 7 nM
pKi D3R (D3R): 8.2

CC(C)CN1CCC[C@@H]1CNc1nc2ccccc2c2c1ccn2S(=O)(=O)c1cccc(Cl)c1.Cl [Compound 17, (R)-1-((3-chlorophenyl)sulfonyl)-N-((1-isobutylpyrrolidin-2-yl)methyl)-1H-pyrrolo[3,2-c]quinolin-4-amine hydrochloride]
inhibition at 1 µM (human D3R [2]): 57%
Impact on 5-HT6R-operated Gs signaling (constitutive activity) (human 5-HT6R [5]): neutral antagonist
Ki (human 5-HT6R [1]): 27 nM
Kb (human serotonin 5-HT6R): 3.8 nM

O=S(=O)(c1cccc(Cl)c1)n1ccc2c(NC[C@H]3CCCN3CCO)nc3ccccc3c21 [Compound 19, (R)-2-(2-(((1-((3-chlorophenyl)sulfonyl)-1H-pyrrolo[3,2-c]quinolin-4 yl)amino)methyl)-pyrrolidin-1-yl)ethan-1-ol hydrochloride]
Ki (human 5-HT6R [1]): 58 nM

O=S(=O)(c1cccc(Cl)c1)n1ccc2c(NC[C@@H]3CCCN3CCO)nc3ccccc3c21 [Compound 20, (S)-2-(2-(((1-((3-chlorophenyl)sulfonyl)-1H-pyrrolo[3,2-c]quinolin-4 yl)amino)methyl)pyrrolidin-1-yl)ethan-1-ol hydrochloride]
Ki (human 5-HT6R [1]): 77 nM

O=S(=O)(c1cccc(Cl)c1)n1ccc2c(N[C@H]3CCNC3)nc3ccccc3c21 [CPPQ, (S)-1-((3-chlorophenyl)sulfonyl)-N-(pyrrolidin-3-yl)-1H-pyrrolo[3,2-c]quinolin-4-amine]
pKi D2R (D2R): 6.0

COCCCN1CCC[C@@H]1CNc1nc2ccccc2c2c1ccn2S(=O)(=O)c1cccc(Cl)c1 [Compound 21, (R)-1-((3-chlorophenyl)sulfonyl)-N-((1-(3-methoxypropyl)pyrrolidin-2-yl)methyl)-1H-pyrrolo[3,2-c]quinolin-4-amine]
Ki (human 5-HT6R [1]): 87 nM

CCN1CCC[C@@H]1CNc1nc2ccccc2c2c1ccn2S(=O)(=O)c1cccc(Cl)c1.Cl [Compound 13, (R)-1-((3-chlorophenyl)sulfonyl)-N-((1-ethylpyrrolidin-2-yl)methyl)-1H-pyrrolo[3,2-c]quinolin-4-amine hydrochloride]
inhibition at 1 µM (human D3R [2]): 58%
Impact on 5-HT6R-operated Gs signaling (constitutive activity) (human 5-HT6R [5]): neutral antagonist
Ki (human 5-HT6R [1]): 27 nM
Kb (human serotonin 5-HT6R): 1.2 nM

COCCCN1CC[C@H](Nc2nc3ccccc3c3c2ccn3S(=O)(=O)c2cccc(Cl)c2)C1 [Compound 11, (S)-1-((3-chlorophenyl)sulfonyl)-N-(1-(3-methoxypropyl)pyrrolidin-3-yl)-1H-pyrrolo[3,2-c]quinolin-4-amine]
inhibition at 1 µM (human D3R [2]): 25%
Ki (human 5-HT6R [1]): 17 nM

COc1cc2c(cc1NS(=O)(=O)c1ccc(-c3cccs3)cc1)CCN(C)CC2 [SB737050]
pKi 5-HT6R (5-HT6R): 9.0
pKi D2R (D2R): 7.7
pKi D3R (D3R): 7.9

CC(C)CN1CCC[C@H]1CNc1nc2ccccc2c2c1ccn2S(=O)(=O)c1cccc(Cl)c1 [Compound 18, (S)-1-((3-chlorophenyl)sulfonyl)-N-((1-isobutylpyrrolidin-2-yl)methyl)-1H-pyrrolo[3,2-c]quinolin-4-amine hydrochloride]
Ki (human 5-HT6R [1]): 65 nM
